Source: BindingDB's records for patent US12227501 (Bayer Aktiengesellschaft, 2025)

Key:
[1] = target: T1, Casein kinase I isoform alpha (Homo sapiens, UniProt P48729); test: CSNK1A1 Assay 2
Description: For the assay 50 nl of a 100 fold concentrated solution of the test compound in DMSO was pipetted into a white 1536-well microtiter plate (Greiner Bio-One, Frickenhausen, Germany), 2 μL of a solution of CSNK1A1 in aqueous assay buffer [50 mM HEPES pH 7.5, 10% (v/v) glycerol, 10 mM MgCl2, 50 mM NaCl, 1 mM dithiothreitol, 0.01% (w/v) bovine serum albumin, 0.01% (v/v) Triton X-100] were added and the mixture was incubated for 15 min at 22° C. to allow pre-binding of the test compounds to the enzyme before the start of the kinase reaction. […] The concentration of CSNK1A1 was adjusted depending of the activity of the enzyme lot and was chosen appropriate to have the assay in the linear range, a typical concentrations are about 0.0375 ng/μL. The reaction was stopped by the addition of 2.5 μL of “ADP-Glo-reagent” (1:1.5 fold diluted with water) and the resulting mixture was incubated at 22° C. for 1 h to convert the ATP not consumed in the kinase reaction completely […]. Subsequently 2.5 μL of the “kinase detection reagent” (1.2 fold more concentrated than recommended by the producer) were added, the resulting mixture was incubated at 22° C. for 1 h and then the luminescence measured with a suitable measurement instrument (e.g. Viewlux™ from Perkin-Elmer).

[2] = target: Casein kinase I isoform delta (Homo sapiens, UniProt P48730); test: CSNK1D Assay
Casein kinase I isoform delta, sequence (P48730 whole entry, canonical isoform): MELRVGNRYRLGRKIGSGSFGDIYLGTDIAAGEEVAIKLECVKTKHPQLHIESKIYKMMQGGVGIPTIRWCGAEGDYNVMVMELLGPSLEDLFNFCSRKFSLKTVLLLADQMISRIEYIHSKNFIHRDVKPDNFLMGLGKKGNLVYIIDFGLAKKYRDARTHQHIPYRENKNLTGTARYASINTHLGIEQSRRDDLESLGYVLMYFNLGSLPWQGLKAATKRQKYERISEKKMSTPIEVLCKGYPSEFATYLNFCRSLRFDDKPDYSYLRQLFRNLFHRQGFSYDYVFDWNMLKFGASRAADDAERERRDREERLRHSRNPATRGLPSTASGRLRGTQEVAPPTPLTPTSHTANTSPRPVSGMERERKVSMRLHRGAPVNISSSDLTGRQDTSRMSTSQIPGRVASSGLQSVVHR
Description: For the assay 50 nl of a 100 fold concentrated solution of the test compound in DMSO was pipetted into a white 1536-well microtiter plate (Greiner Bio-One, Frickenhausen, Germany), 2 μL of a solution of CSNK1D in aqueous assay buffer [50 mM HEPES pH 7.5, 10% (v/v) glycerol, 10 mM MgCl2, 50 mM NaCl, 1 mM dithiothreitol, 0.01% (w/v) bovine serum albumin, 0.01% (v/v) Triton X-100] were added and the mixture was incubated for 15 min at 22° C. to allow pre-binding of the test compounds to the enzyme before the start of the kinase reaction. […] The concentration of CSNK1 D was adjusted depending of the activity of the enzyme lot and was chosen appropriate to have the assay in the linear range, a typical concentration is about 0.5 ng/μL. The reaction was stopped by the addition of 2.5 μL of “ADP-Glo-reagent” (1:1.5 fold diluted with water) and the resulting mixture was incubated at 22° C. for 1 h to convert the ATP not consumed in the kinase reaction completely […]. Subsequently 2.5 μL of the “kinase detection reagent” (1.2 fold more concentrated than recommended by the producer) were added, the resulting mixture was incubated at 22° C. for 1 h and then the luminescence measured with a suitable measurement instrument (e.g. Viewlux™ from Perkin-Elmer). The amount of emitted light was taken as a measure for the amount of ADP generated and thereby for the activity of the CSNK1D.

[3] = target: T1, Casein kinase I isoform alpha; test: CSNK1A1 High ATP Assay
Description: For the assay 50 nl of a 100 fold concentrated solution of the test compound in DMSO was pipetted into a white low volume 384-well microtiter plate (Greiner Bio-One, Frickenhausen, Germany), 2 μL of a solution of CSNK1A1 in aqueous assay buffer [50 mM HEPES pH 7.5, 10% (v/v) glycerol, 10 mM MgCl2, 50 mM NaCl, 1 mM dithiothreitol, 0.01% (w/v) bovine serum albumin, 0.01% (v/v) Triton X-100] were added and the mixture was incubated for 15 min at 22° C. to allow pre-binding of the test compounds to the enzyme before the start of the kinase reaction. […] The concentration of CSNK1A1 was adjusted depending of the activity of the enzyme lot and was chosen appropriate to have the assay in the linear range, a typical concentration is about 0.4 ng/μL. The reaction was stopped by the addition of 2.5 μL of “ADP-Glo-reagent” (1:1.5 fold diluted with water) and the resulting mixture was incubated at 22° C. for 1 h to convert the ATP not consumed in the kinase reaction completely […]. Subsequently 2.5 μL of the “kinase detection reagent” (1.2 fold more concentrated than recommended by the producer) were added, the resulting mixture was incubated at 22° C. for 1 h and then the luminescence measured with a suitable measurement instrument (e.g. Viewlux™ from Perkin-Elmer). The amount of emitted light was taken as a measure for the amount of ADP generated and thereby for the activity of the CSNK1A1.

[4] = target: T2, Epidermal growth factor receptor [669-1210] (UniProt P00533); test: WT-EGFR Kinase Assay
T2 construct: 669-1210
T2 sequence (P00533 669-1210): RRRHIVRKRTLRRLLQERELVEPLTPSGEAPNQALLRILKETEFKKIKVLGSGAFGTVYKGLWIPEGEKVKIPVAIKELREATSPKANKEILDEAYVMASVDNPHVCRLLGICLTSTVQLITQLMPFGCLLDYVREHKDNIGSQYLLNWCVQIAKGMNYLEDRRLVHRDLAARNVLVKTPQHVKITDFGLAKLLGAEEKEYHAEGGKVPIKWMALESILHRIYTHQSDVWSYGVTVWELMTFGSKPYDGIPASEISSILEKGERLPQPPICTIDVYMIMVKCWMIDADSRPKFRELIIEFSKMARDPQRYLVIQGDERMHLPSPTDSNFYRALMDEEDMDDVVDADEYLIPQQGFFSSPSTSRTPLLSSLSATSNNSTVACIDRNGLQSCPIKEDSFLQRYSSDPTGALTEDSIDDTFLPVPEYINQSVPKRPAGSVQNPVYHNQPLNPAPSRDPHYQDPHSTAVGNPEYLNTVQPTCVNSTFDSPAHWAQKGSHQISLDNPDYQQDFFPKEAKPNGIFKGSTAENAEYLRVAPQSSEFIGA
Description: For the assay 50 nl of a 100 fold concentrated solution of the test compound in DMSO was pipetted into either a black low volume 384 well microtiter plate or a black 1536 well microtiter plate (both Greiner Bio-One, Frickenhausen, Germany), 2 μL of a solution of EGFR in aqueous assay buffer [50 mM Hepes pH 7.0, 10 mM MgCl2, 1 mM dithiothreitol, 0.5 mM EGTA, 0.3 mM activated sodium ortho-vanadate, 0.005% (w/v) bovine serum albumin, 0.005% (v/v) Tween-20] were added and the mixture was incubated for 15 min at 22° C. to allow pre-binding of the test compounds to the enzyme before the start of the kinase reaction. […] The concentration of EGFR was adjusted depending of the activity of the enzyme lot and was chosen appropriate to have the assay in the linear range, typical concentration was 7.6 pg/μL. […] Subsequently the amount of phosphorylated substrate was evaluated by measurement of the resonance energy transfer from the PT66-Tb-Cryptate to the streptavidine-XL665.

[5] = target: T1, Casein kinase I isoform alpha; test: CSNK1A1 Assay 1
Description: Inhibitory activity of compounds of the present invention in presence of 1 μM adenosine-tri-phosphate (ATP) was quantified employing the CSNK1A1 assay as described in the following paragraphs. In essence, the enzyme activity is measured by quantification of the adenosine-di-phosphate (ADP), which is generated as a co-product of the enzyme reaction, via the “ADP-Glo™ Kinase Assay” kit from the company Promega. This detection system works as follows: In a first step the ATP not consumed in the kinase reaction is quantitatively converted to cAMP employing an adenylate cyclase (“ADP-Glo-reagent”), then the adenylate cyclase is stopped and the ADP generated in the kinase reaction converted to ATP which generates in a luciferase-based reaction a glow-luminescence signal (“Kinase Detection Reagent”). Recombinant fusion protein of N-terminal Glutathion-S-Transferase (GST) and full-length human CSNK1A1, expressed by baculovirus infected insect cells and purified via Glutathion affinity chromatography, was purchased from Life Technologies (product no. PV4174) and used as enzyme. As substrate for the kinase reaction the biotinylated peptide Btn-Ahx-[…] (C-terminus in amide form) was used which can be purchased e.g. from the company Biosyntan (Berlin-Buch, Germany).

T1 sequence (P48729 whole entry, canonical isoform): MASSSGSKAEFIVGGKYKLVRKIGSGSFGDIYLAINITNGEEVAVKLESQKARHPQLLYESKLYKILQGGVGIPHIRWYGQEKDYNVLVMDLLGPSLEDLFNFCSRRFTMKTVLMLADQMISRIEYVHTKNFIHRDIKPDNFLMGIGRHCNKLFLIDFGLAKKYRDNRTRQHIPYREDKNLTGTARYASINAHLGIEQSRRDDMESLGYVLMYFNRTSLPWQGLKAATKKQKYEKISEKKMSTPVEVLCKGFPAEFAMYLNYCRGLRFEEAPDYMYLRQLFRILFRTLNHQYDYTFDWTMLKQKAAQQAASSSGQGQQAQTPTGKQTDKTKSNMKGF

| Structure (SMILES) | IC50 [1] [nM] | IC50 [2] [nM] | IC50 [3] [nM] | IC50 [4] [µM] | IC50 [5] [nM] |
| --- | --- | --- | --- | --- | --- |
| CC1(C)Cc2[nH]c(-c3ccnc(NC(=O)Cc4ccc(F)cc4)c3)c(Nc3cccc(F)n3)c2C(=O)N1 [US12227501, Example 126] | 4.44 | 14.4 | 47.8 | – | – |
| CN1C(=O)c2c([nH]c(-c3ccnc(NC(=O)Cc4ccc(F)cc4)c3)c2Nc2ccccc2)CC12CCC2 [US12227501, Example 156] | 6.09 | 9.38 | 29.7 | 6.66 | – |
| Cc1ccccc1CC(=O)Nc1cc(-c2[nH]c3c(c2Nc2ccccc2)C(=O)N(C)CC3)ccn1 [US12227501, Example 71] | 4.79 | 6.47 | 241 | 7.43 | – |
| CC(C(=O)Nc1cc(-c2[nH]c3c(c2Nc2ccccc2)C(=O)N(CC(F)(F)F)CC3)ccn1)c1ccc(F)cc1 (stereo not drawn) [US12227501, Example 37] | 22.6 | – | > 1630 | > 20 | – |
| CN1CCc2[nH]c(-c3ccnc(NC(=O)[C@@H]4C[C@@H]4F)c3)c(Nc3ccccc3)c2C1=O [US10428063, Example 40] | – | – | – | 0.0855 | 24.1 |
| CC(C(=O)Nc1cc(-c2[nH]c3c(c2Nc2ccccc2F)C(=O)N(C)CC3)ccn1)c1ccc(F)cc1 (stereo not drawn) [US12227501, Example 29] | 3.19 | – | 138 | – | – |
| Cc1ccccc1Nc1c(-c2ccnc(NC(=O)Cc3ccc(F)cc3)c2)[nH]c2c1C(=O)NC(C)(C)C2 [US12227501, Example 113] | 13.7 | 16.1 | 166 | – | – |
| Cc1c(F)cccc1Nc1c(-c2ccnc(NC(=O)Cc3ccc(F)cc3)c2)[nH]c2c1C(=O)NC(C)(C)C2 [US12227501, Example 131] | 9.38 | 11.6 | 464 | 1.09 | – |
| CC1(C)Cc2[nH]c(-c3ccnc(NC(=O)Cc4ccc(F)cc4)c3)c(Nc3ccccc3)c2C(=O)N1 [US12227501, Example 22] | 4.23 | 11.9 | 54.7 | 0.815 | – |
| CC1(C)Cc2[nH]c(-c3ccnc(NC(=O)Cc4ccc(F)cc4)c3)c(Nc3cccc(F)n3)c2C(=O)N1 [US12227501, Example 127] | 4.74 | – | 23.1 | > 20 | – |
| Cc1ccccc1Nc1c(-c2ccnc(NC(=O)Cc3ccc(F)cc3)c2)[nH]c2c1C(=O)NC1(CCC1)C2 [US12227501, Example 142] | 5.1 | 9.35 | 12.3 | > 20 | – |
| O=C(Cc1ccc(F)cc1)Nc1cc(-c2[nH]c3c(c2Nc2ccccc2)C(=O)N(CC(F)(F)F)CC3)ccn1 [US12227501, Example 36] | 11.3 | – | 1080 | > 20 | – |
| Cc1cccc(CC(=O)Nc2cc(-c3[nH]c4c(c3Nc3ccccc3)C(=O)N(C)CC4)ccn2)c1 [US12227501, Example 70] | 3.2 | 3.66 | 140 | 2.04 | – |
